Assay [1] has as its target T1, human B1R (Homo sapiens, UniProt P46663).
T1 construct: expressed in transfected cells; host or cells: CHO K1 cells (Chinese hamster ovary), stably transfected
T1 sequence (P46663 1-353): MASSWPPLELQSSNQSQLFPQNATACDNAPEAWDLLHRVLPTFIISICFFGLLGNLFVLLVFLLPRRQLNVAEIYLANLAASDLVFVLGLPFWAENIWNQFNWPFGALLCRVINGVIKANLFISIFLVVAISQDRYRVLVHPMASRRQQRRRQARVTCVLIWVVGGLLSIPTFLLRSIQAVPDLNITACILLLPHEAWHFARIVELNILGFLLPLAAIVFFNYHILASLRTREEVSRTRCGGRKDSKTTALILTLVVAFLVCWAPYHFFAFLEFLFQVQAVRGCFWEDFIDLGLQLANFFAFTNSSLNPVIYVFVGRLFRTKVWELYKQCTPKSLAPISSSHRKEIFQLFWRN
Briefly: FLIPR Ca2+ functional assay, B1R antagonism, human B1R in CHO K1 cells. The format is cell-based. To be noted: test substance 10 μM; hB1R CHO K1 cells; agonist Lys-Des-Arg9 bradykinin at EC80; % of maximum achievable inhibition. As for the experimental part: The agonistic or antagonistic action of substances on the bradykinin 1 receptor (B1R) of the human and rat species can be quantified with ectopically expressing cell lines (CHO K1 cells) and with the aid of a Ca^2+-sensitive dye (Fluo-4) using a fluorescent imaging plate reader (FLIPR). The value in % activation is based on the Ca^2+ signal after addition of Lys-Des-Arg^9 bradykinin (0.5 nM) or Des-Arg^9 bradykinin (100 nM). Antagonists lead to a suppression of the Ca^2+ influx following administration of the agonist. The % inhibition in comparison with the maximum achievable inhibition is indicated.
1. Functional Investigation on the Bradykinin 1 Receptor (B1R) The agonistic or antagonistic action of substances can be determined on the bradykinin 1 receptor (B1R) of the human and rat species with the following assay. According to this assay, the Ca^2+ inflow through the channel is quantified with the aid of a Ca^2+-sensitive dye (Fluo-4 type, Molecular Probes Europe BV, Leiden, Netherlands) in a fluorescent imaging plate reader (FLIPR, Molecular Devices, Sunnyvale, USA). 2. Method: Chinese hamster ovary cells (CHO K1 cells) which are stably transfected with the human B1R gene (hB1R cells) or the B1R gene of the rat (rB1R cells) are used. For functional investigations these cells are plated-out onto black 96-well plates with a clear base (BD Biosciences, Heidelberg, Germany or Greiner, Frickenhausen, Germany) in a density of 20,000-35,000 cells/well. Overnight the cells are incubated at 37° C. and 5% CO2 in culture medium (hB1R cells: Ham's Nutrient Mixture F12, Gibco Invitrogen GmbH, Karlsruhe, Germany or DMEM, Sigma-Aldrich, Taufkirchen, Germany; rB1R cells: D-MEM/F12, Gibco Invitrogen, Karlsruhe, Germany) with 10 vol. % FBS (foetal bovine serum, Gibco Invitrogen GmbH, Karlsruhe, Germany or PAN Biotech GmbH, Aidenbach, Germany).
On the following day the cells are loaded with 2.13 μM Fluo-4 (Molecular Probes Europe BV, Leiden, Netherlands) in HBSS buffer (Hank's buffered saline solution, Gibco Invitrogen GmbH, Karlsruhe, Germany) with 2.5 mM probenecid (Sigma-Aldrich, Taufkirchen, Germany) and 10 mM HEPES (Sigma-Aldrich, Taufkirchen, Germany) for 60 min at 37° C. The plates are subsequently washed twice with HBSS buffer, and HBSS buffer which additionally contains 0.1% BSA (bovine serum albumin; Sigma-Aldrich, Taufkirchen, Germany), 5.6 mM glucose and 0.05% gelatine (Merck KGaA, Darmstadt, Germany) is added. After a further incubation of 20 minutes at RT, the plates are inserted into the FLIPR for Ca^2+ measurement. Alternatively they are washed with buffer A (15 mM HEPES, 80 mM NaCl, 5 mM KCl, 1.2 mM CaCl2, 0.7 mM MgSO4, 2 g/l glucose, 2.5 mM probenecid) and loaded with buffer A with added 2.5 μM Fluo-4 and 0.025% Pluronic F127 (Sigma-Aldrich, Taufkirchen, Germany). The cells are then washed twice with buffer A and incubated for 30 minutes with buffer A, which additionally contains 0.05% BSA and 0.05% gelatine, at RT and then used for Ca^2+ measurement in the FLIPR. The Ca^2+-dependent fluorescence is measured here before and after addition of substances (λex=488 nm, λem=540 nm). The quantification is performed by measuring the highest fluorescence intensity (FC, fluorescence counts) over time.
The FLIPR protocol comprises two additions of substance. Test substances (10 μM) are first pipetted onto the cells and the Ca^2+ inflow is compared with the control (hB1R: Lys-Des-Arg^9 bradykinin >=50 nM; rB1R: Des-Arg^9 bradykinin 10 μM). The value in % activation based on the Ca^2+ signal after addition of Lys-Des-Arg^9 bradykinin (>=50 nM) or Des-Arg^9 bradykinin (10 μM) is obtained therefrom. After incubation for 10-20 minutes, Lys-Des-Arg^9 bradykinin (hB1R) or Des-Arg^9 bradykinin (rB1R) is applied in the EC80 concentration and the inflow of Ca^2+ is likewise determined.
Antagonists lead to a suppression of the Ca^2+ inflow. The % inhibition in comparison with the maximum achievable inhibition is calculated. […]

The target in assay [2] is T2, B1R of the rat (Rattus norvegicus, UniProt P97583).
T2 construct: expressed in transfected cells; host or cells: CHO K1 cells (Chinese hamster ovary), stably transfected
T2 sequence (P97583 1-337): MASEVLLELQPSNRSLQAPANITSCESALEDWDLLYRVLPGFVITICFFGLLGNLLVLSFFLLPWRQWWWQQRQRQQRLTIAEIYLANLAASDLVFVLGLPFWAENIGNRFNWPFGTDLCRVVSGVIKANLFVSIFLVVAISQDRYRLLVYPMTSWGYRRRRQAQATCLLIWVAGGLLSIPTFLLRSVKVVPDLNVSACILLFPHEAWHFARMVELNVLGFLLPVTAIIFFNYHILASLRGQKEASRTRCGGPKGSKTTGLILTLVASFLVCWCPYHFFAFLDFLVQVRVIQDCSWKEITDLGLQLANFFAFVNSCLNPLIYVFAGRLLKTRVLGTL
The experiment in a line: FLIPR Ca2+ functional assay, B1R antagonism, rat B1R in CHO K1 cells. The class given is cell-based. The settings on record: test substance 10 μM; rB1R CHO K1 cells; agonist Des-Arg9 bradykinin at EC80; % of maximum achievable inhibition. The gist of the method:
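IC50 values come from varied compound concentrations applied 10-20 min before an EC80 agonist challenge, with Des-Arg9 bradykinin for rat and Lys-Des-Arg9 bradykinin for human receptor. Ca2+ influx in Fluo-4-loaded CHO K1 transfectants was measured by FLIPR peak fluorescence. Data are % inhibition vs maximum, n=2-3, N>=2.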

Consider `CN1CCN(Cc2ccc3c(c2)CCCC3NC(=O)CC2c3cccn3CCN2S(=O)(=O)c2cccc(C(F)(F)F)c2)CC1` (centres unmarked) [Example 59, N-[6-[(4-Methyl-piperazin-1-yl)-methyl]-1,2,3,4-tetrahydro-naphthalen-1-yl]-2-[2-[[3-(trifluoromethyl)phenyl]sulfonyl]-1,2,3,4-tetrahydro-pyrrolo[1,2-a]pyrazin-1-yl]-acetamide], for which the inhibition (in general, the relative decrease from the control value, in per cent) at 10 µM in assay [1] is 99.8%; in assay [2], 76.2%.
Take `Cc1ccc(S(=O)(=O)N2CCn3cccc3C2CC(=O)N[C@@H]2CCCc3cc(CNCC(F)(F)F)ccc32)cc1` (stereo partly drawn) [Example 45, 2-(2-Tosyl-1,2,3,4-tetrahydropyrrolo[1,2-a]pyrazin-1-yl)-N—((R)-6-((2,2,2-trifluoroethylamino)methyl)-1,2,3,4-tetrahydronaphthalen-1-yl)acetamide]: the inhibition at 10 µM in assay [1] is 50.6%; in assay [2], 64%.
As to `Cc1ccc(S(=O)(=O)N2CCn3cccc3C2CC(=O)NC2CCc3cc(CN4CCN(C)CC4)ccc3C2)cc1` (centres unmarked) [Example 81, N-[6-[(4-Methyl-piperazin-1-yl)-methyl]-1,2,3,4-tetrahydro-naphthalen-2-yl]-2-[2-(p-tolylsulfonyl)-1,2,3,4-tetrahydro-pyrrolo[1,2-a]pyrazin-1-yl]-acetamide], the inhibition at 10 µM in assay [1] was 99.1%; in assay [2], 102%.
On the same counts, the results for `COc1ccc2cc(S(=O)(=O)N3CCn4cccc4C3CC(=O)NC3CCc4cc(CN5CCCC5)ccc4C3)ccc2c1` (centres unmarked) [Example 94, 2-[2-[(6-Methoxy-naphthalen-2-yl)sulfonyl]-1,2,3,4-tetrahydro-pyrrolo[1,2-a]pyrazin-1-yl]-N-[6-(pyrrolidin-1-yl-methyl)-1,2,3,4-tetrahydro-naphthalen-2-yl]-acetamide] are 99.9% and 101%.
Take `COc1cc(C)c(S(=O)(=O)N2CCn3cccc3C2COCC(=O)N2CCC3(CC2)CCN(c2ccncc2)C3)c(C)c1` (centres unmarked) [Example 4, 2-((2-(4-Methoxy-2,6-dimethylphenylsulfonyl)-1,2,3,4-tetrahydropyrrolo[1,2-a]pyrazin-1-yl)methoxy)-1-(2-(pyridin-4-yl)-2,8-diazaspiro[4.5]decan-8-yl)ethanone]: the values for the inhibition at 10 µM in assay [1] and in assay [2] were 99.8% and 104%, respectively.
For `Cc1ccc(S(=O)(=O)N2CCn3cccc3C2CC(=O)NC2CCCc3cc(CN4CCCCC4)ccc32)cc1` (centres unmarked) [Example 80, N-[6-(Piperidin-1-yl-methyl)-1,2,3,4-tetrahydro-naphthalen-1-yl]-2-[2-(p-tolylsulfonyl)-1,2,3,4-tetrahydro-pyrrolo[1,2-a]pyrazin-1-yl]-acetamide], the values for the inhibition at 10 µM in assay [1] and in assay [2] were 99.8% and 101%, respectively.
With `Cc1ccc(S(=O)(=O)N2CCn3cccc3C2CC(=O)NC2CCc3cc(CNCc4ccccc4)ccc3C2)cc1` (centres unmarked) [Example 93, N-[6-[(Benzylamino)-methyl]-1,2,3,4-tetrahydro-naphthalen-2-yl]-2-[2-(p-tolylsulfonyl)-1,2,3,4-tetrahydro-pyrrolo[1,2-a]pyrazin-1-yl]-acetamide], the inhibition at 10 µM amounted to 99.9% in assay [1] and 96.8% in assay [2].
On to `Cc1cccc(Cl)c1S(=O)(=O)N1CCn2cccc2C1COCC(=O)N1CCC(Oc2ccncc2)CC1` (centres unmarked) [Example 6, 2-((2-(2-Chloro-6-methylphenylsulfonyl)-1,2,3,4-tetrahydropyrrolo[1,2-a]pyrazin-1-yl)methoxy)-1-(4-(pyridin-4-yloxy)piperidin-1-yl)ethanone], for which the inhibition at 10 µM in assay [1] came to 99.6%; in assay [2], 100%.
On to `O=C(CC1c2cccn2CCN1S(=O)(=O)c1cccc(C(F)(F)F)c1)NC1CCc2cc(CN3C4CCCC3CC4)ccc2C1` (centres unmarked) [Example 88, N-[6-(8-Azabicyclo[3.2.1]octan-8-yl-methyl)-1,2,3,4-tetrahydro-naphthalen-2-yl]-2-[2-[[3-(trifluoromethyl)phenyl]sulfonyl]-1,2,3,4-tetrahydro-pyrrolo[1,2-a]pyrazin-1-yl]-acetamide], for which the inhibition at 10 µM in assay [1] stood at 99.9%; in assay [2], 96.5%.
For `COc1cc(C)c(S(=O)(=O)N2CCn3cccc3C2COCC(=O)NC2CCN(c3ccncc3)CC2)c(C)c1` (centres unmarked) [Example 36, 2-[[2-[(4-Methoxy-2,6-dimethyl-phenyl)sulfonyl]-1,2,3,4-tetrahydro-pyrrolo[1,2-a]pyrazin-1-yl]-methoxy]-N-(1-pyridin-4-yl-piperidin-4-yl)-acetamide], the inhibition at 10 µM in assay [1] amounted to 97.5%; in assay [2] it was 103%.
Take `COc1cc(C)c(S(=O)(=O)N2CCn3cccc3C2COCC(=O)N(C)CCC2CCN(c3ccncc3)CC2)c(C)c1` (centres unmarked) [Example 7]: the inhibition at 10 µM in assay [1] amounted to 99.9%; in assay [2], 102%.
With `Cc1ccc(S(=O)(=O)N2CCn3cccc3C2CC(=O)NC2CCc3cc(CN(C)C)ccc3C2)cc1` (centres unmarked) [Example 58, N-[6-(Dimethylaminomethyl)-1,2,3,4-tetrahydro-naphthalen-2-yl]-2-[2-(p-tolylsulfonyl)-1,2,3,4-tetrahydro-pyrrolo[1,2-a]pyrazin-1-yl]-acetamide], the inhibition at 10 µM amounted to 100% in assay [1] and 103% in assay [2].
Consider `O=C(CC1c2cccn2CCN1S(=O)(=O)c1cccc(C(F)(F)F)c1)NC1CCCc2cc(CN3CCOCC3)ccc21` (centres unmarked) [Example 53, N-[6-(Morpholin-4-yl-methyl)-1,2,3,4-tetrahydro-naphthalen-1-yl]-2-[2-[[3-(trifluoromethyl)phenyl]sulfonyl]-1,2,3,4-tetrahydro-pyrrolo[1,2-a]pyrazin-1-yl]-acetamide], for which the results for the inhibition at 10 µM in assay [1] and in assay [2] were 99% and 102%, respectively.
